Each block holds one compound with its values, some of them ahead of it.
Tests used:
[1] = test system: CYP3A subfamily, CYP3A4, CYP3A5 and CYP3A7; assay: Two-step luminescent P450 screen of luciferin derivatives, selectivity for the CYP3A subfamily; format: biochemical, human; conditions: result in words
Description: (§1) P450s are Supersomes™ purchased from Discovery Labware (BD/Gentest). […] HLM is human liver microsomes.
(§2) 1X substrate concentration: 50 µM.

[2] = biological target: T1, human recombinant monoamine oxidase A (MAO A) (Homo sapiens, UniProt P21397); assay: One-step fluorogenic MAO assay with MAO-F3; format: biochemical; parameters: purchased Sigma Chemical Company M-7316; host or cells: baculovirus infected insect cells (microsomes)
T1 sequence (P21397 1-527): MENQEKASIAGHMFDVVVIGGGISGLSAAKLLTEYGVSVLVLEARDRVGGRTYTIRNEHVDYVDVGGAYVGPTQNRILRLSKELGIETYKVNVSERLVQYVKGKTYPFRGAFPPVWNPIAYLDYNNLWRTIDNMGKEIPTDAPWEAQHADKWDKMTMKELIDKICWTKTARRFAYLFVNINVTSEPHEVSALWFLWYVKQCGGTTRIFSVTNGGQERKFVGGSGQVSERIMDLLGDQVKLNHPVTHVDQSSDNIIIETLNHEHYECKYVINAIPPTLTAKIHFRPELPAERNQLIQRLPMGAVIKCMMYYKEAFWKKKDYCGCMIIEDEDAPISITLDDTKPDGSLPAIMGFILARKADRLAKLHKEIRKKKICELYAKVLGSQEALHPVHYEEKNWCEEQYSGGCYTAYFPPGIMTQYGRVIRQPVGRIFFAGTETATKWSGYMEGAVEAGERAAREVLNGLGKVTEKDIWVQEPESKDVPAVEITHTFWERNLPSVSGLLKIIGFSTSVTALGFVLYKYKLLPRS
Description: (§3) The fluorescent signal was then measured (excitation/emission = 355/460 nm) on a Fluoroskan Ascent plate fluorometer.
(§4) This 90 µl contained 35 µl 200 mM Tricine pH 8.3, 35 µl 200 mM Tricine pH 8.7 (or water), 10 µl 200 mM MgSO4, and 10 µl of each substrate dilution.

[3] = One-step fluorogenic MAO assay with MAO-F3, control wells with H2O instead of MAO (fluorescence of the derivative); format: biochemical
Description: as §3, §4

[4] = biological target: T2, human recombinant monoamine oxidase B (MAO B) (Homo sapiens, UniProt P27338); assay: One-step fluorogenic MAO assay with MAO-F3; format: biochemical
T2 construct: purchased Sigma Chemical Company M-7441; host or cells: baculovirus infected insect cells (microsomes)
T2 sequence (P27338 1-520): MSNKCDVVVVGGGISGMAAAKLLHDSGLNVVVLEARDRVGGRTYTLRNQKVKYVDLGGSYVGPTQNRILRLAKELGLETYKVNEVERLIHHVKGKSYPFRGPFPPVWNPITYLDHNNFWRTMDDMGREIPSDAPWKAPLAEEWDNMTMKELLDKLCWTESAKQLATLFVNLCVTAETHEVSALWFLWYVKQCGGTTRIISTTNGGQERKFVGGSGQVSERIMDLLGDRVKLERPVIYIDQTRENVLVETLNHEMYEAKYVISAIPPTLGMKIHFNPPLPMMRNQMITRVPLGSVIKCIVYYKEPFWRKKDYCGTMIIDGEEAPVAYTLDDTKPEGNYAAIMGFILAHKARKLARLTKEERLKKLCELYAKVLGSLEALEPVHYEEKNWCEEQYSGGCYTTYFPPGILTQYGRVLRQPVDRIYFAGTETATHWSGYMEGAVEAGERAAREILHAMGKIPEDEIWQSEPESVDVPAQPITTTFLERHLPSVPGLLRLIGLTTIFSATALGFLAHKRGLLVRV
Description: as §3, §4

[5] = biological target: T3, CYP1A1 (Homo sapiens, UniProt P04798); assay: Two-step luminescent P450 screen of luciferin derivatives; conditions: 50 µM substrate, 1 pmole P450, 37°C 30 minutes; result in words
T3 sequence (P04798 1-512): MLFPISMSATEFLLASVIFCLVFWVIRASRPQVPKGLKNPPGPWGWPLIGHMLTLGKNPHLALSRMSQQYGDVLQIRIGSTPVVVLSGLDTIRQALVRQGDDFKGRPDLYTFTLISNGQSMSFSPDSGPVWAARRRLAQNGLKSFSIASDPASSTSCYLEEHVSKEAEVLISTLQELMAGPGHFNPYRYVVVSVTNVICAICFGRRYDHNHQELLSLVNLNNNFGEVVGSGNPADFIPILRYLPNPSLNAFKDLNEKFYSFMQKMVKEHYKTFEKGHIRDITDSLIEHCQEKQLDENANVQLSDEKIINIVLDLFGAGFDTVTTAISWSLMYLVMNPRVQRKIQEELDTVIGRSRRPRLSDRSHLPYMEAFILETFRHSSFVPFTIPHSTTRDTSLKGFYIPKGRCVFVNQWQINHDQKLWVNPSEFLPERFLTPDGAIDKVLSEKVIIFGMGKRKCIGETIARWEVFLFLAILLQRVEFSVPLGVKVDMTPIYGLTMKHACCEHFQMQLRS

[6] = biological target: T4, CYP1A2 (Homo sapiens, UniProt P05177); assay: as above; format: biochemical; conditions: 50 µM substrate, 1 pmole P450; result in words
T4 construct: purchased Discovery Labware (BD/Gentest); host or cells: insect cell expression system (membrane fractions)
T4 sequence (P05177 2-516 limits assumed): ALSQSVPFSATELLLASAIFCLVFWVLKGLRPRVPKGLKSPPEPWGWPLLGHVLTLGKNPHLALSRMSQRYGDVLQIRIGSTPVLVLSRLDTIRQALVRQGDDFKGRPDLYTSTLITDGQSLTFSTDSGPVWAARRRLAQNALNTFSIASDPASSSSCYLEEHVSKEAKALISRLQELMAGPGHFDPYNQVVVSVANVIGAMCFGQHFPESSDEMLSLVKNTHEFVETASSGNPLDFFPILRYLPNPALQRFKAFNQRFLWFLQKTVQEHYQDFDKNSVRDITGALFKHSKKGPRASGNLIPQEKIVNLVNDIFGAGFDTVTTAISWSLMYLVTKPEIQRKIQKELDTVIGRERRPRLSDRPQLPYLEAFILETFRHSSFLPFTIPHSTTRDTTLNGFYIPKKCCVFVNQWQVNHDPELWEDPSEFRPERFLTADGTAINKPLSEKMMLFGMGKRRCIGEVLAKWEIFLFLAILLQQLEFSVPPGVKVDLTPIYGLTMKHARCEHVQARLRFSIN
Description: as §1, §2

[7] = fit of Table 31, fluorescence 355/460 nm

- selectivity for three members of the CYP3A subfamily [1]: selective
Compound: O=C(O)[C@H]1CSC(c2ccc3cc(OCOCc4ccccc4)ccc3n2)=N1 [6'benzyloxymethoxy-quinolylluciferin, quinolinyl luciferin benzyloxymethyl ether]

- selectivity for three members of the CYP3A subfamily [1]: selective
Compound: O=C(O)[C@H]1CSC(c2nc3ccc(OCc4cc(C(F)(F)F)ccc4C(F)(F)F)cc3s2)=N1 [6'(2,5-ditrifluoromethylbenzyloxy)-luciferin]

- relative fluorescent signal, MAO A ([2]; [MAO-F3] 0.21 µM): 240
- relative fluorescent signal, net A ([2]; [MAO-F3] 0.21 µM): 192
- relative fluorescent signal, MAO A ([2]; [MAO-F3] 0.84 µM): 815
- relative fluorescent signal, net A ([2]; [MAO-F3] 0.84 µM): 758
- relative fluorescent signal, MAO A ([2]; [MAO-F3] 3.37 µM): 2604
- relative fluorescent signal, net A ([2]; [MAO-F3] 3.37 µM): 2486
- relative fluorescent signal, MAO A ([2]; [MAO-F3] 6.75 µM): 4129
- relative fluorescent signal, net A ([2]; [MAO-F3] 6.75 µM): 3932
- relative fluorescent signal, MAO A ([2]; [MAO-F3] 13.50 µM): 6078
- relative fluorescent signal, net A ([2]; [MAO-F3] 13.50 µM): 5730
- relative fluorescent signal, MAO A ([2]; [MAO-F3] 26.99 µM): 8461
- relative fluorescent signal, net A ([2]; [MAO-F3] 26.99 µM): 7828
- relative fluorescent signal, MAO A ([2]; [MAO-F3] 53.98 µM): 11555
- relative fluorescent signal, net A ([2]; [MAO-F3] 53.98 µM): 10345
- relative fluorescent signal, MAO A ([2]; [MAO-F3] 215.94 µM): 16721
- relative fluorescent signal, net A ([2]; [MAO-F3] 215.94 µM): 13346
- relative fluorescent signal, MAO A ([2]; [MAO-F3] 431.88 µM): 19530
- relative fluorescent signal, net A ([2]; [MAO-F3] 431.88 µM): 14433
- relative fluorescent signal, MAO A ([2]; [MAO-F3] 863.75 µM): 21154
- relative fluorescent signal, net A ([2]; [MAO-F3] 863.75 µM): 14393
- signal-to-background ratios at the Km values ([2]; fit of Table 31): about 15
- Km [2, 7]: 21 ± 1 µM
- relative fluorescent signal, MAO B ([4]; [MAO-F3] 0.21 µM): 202
- relative fluorescent signal, net B ([4]; [MAO-F3] 0.21 µM): 154
- relative fluorescent signal, MAO B ([4]; [MAO-F3] 0.84 µM): 689
- relative fluorescent signal, net B ([4]; [MAO-F3] 0.84 µM): 632
- relative fluorescent signal, MAO B ([4]; [MAO-F3] 3.37 µM): 2198
- relative fluorescent signal, net B ([4]; [MAO-F3] 3.37 µM): 2080
- relative fluorescent signal, MAO B ([4]; [MAO-F3] 6.75 µM): 3683
- relative fluorescent signal, net B ([4]; [MAO-F3] 6.75 µM): 3486
- relative fluorescent signal, MAO B ([4]; [MAO-F3] 13.50 µM): 5239
- relative fluorescent signal, net B ([4]; [MAO-F3] 13.50 µM): 4891
- relative fluorescent signal, MAO B ([4]; [MAO-F3] 26.99 µM): 7468
- relative fluorescent signal, net B ([4]; [MAO-F3] 26.99 µM): 6835
- relative fluorescent signal, MAO B ([4]; [MAO-F3] 53.98 µM): 9885
- relative fluorescent signal, net B ([4]; [MAO-F3] 53.98 µM): 8675
- relative fluorescent signal, MAO B ([4]; [MAO-F3] 215.94 µM): 14149
- relative fluorescent signal, net B ([4]; [MAO-F3] 215.94 µM): 10774
- relative fluorescent signal, MAO B ([4]; [MAO-F3] 431.88 µM): 16590
- relative fluorescent signal, net B ([4]; [MAO-F3] 431.88 µM): 11493
- relative fluorescent signal, MAO B ([4]; [MAO-F3] 863.75 µM): 17322
- relative fluorescent signal, net B ([4]; [MAO-F3] 863.75 µM): 10561
- signal-to-background ratios at the Km values ([4]; fit of Table 31): about 13
- Km [4, 7]: 16 ± 1 µM
Compound: CNCCCOc1ccc2c(C)cc(=O)oc2c1 [MAO-F3, 7-(4-methyl-3-N-methylaminopropoxy)coumarin]
- relative fluorescent signal, no MAO ([3]; [MAO-F3] 0.21 µM): 48
- relative fluorescent signal, no MAO ([3]; [MAO-F3] 0.84 µM): 57
- relative fluorescent signal, no MAO ([3]; [MAO-F3] 3.37 µM): 118
- relative fluorescent signal, no MAO ([3]; [MAO-F3] 6.75 µM): 197
- relative fluorescent signal, no MAO ([3]; [MAO-F3] 13.50 µM): 348
- relative fluorescent signal, no MAO ([3]; [MAO-F3] 26.99 µM): 633
- relative fluorescent signal, no MAO ([3]; [MAO-F3] 53.98 µM): 1210
- relative fluorescent signal, no MAO ([3]; [MAO-F3] 215.94 µM): 3375
- relative fluorescent signal, no MAO ([3]; [MAO-F3] 431.88 µM): 5097
- relative fluorescent signal, no MAO ([3]; [MAO-F3] 863.75 µM): 6761

- P450 activity / selectivity with the derivative as substrate [5]: strong selectivity
Compound: N-benzyloxycarbonyl aminoluciferin

- P450 activity / selectivity with the derivative as substrate [6]: good selectivity
Compound: COc1ccc2nc(C3=N[C@@H](C(=O)NN)CS3)sc2c1 [luciferin-6-methylether hydrazide, Hydrazide of luciferin methyl ether]

Reference: patent EP1935986B1, “Luminogenic and fluorogenic compounds and methods to detect molecules or conditions” (priority 2005, dated 2006)
